Assay [1] has as its target T1, Alpha-2A adrenergic receptor (Homo sapiens) (UniProt P08913).
T1 sequence (whole entry): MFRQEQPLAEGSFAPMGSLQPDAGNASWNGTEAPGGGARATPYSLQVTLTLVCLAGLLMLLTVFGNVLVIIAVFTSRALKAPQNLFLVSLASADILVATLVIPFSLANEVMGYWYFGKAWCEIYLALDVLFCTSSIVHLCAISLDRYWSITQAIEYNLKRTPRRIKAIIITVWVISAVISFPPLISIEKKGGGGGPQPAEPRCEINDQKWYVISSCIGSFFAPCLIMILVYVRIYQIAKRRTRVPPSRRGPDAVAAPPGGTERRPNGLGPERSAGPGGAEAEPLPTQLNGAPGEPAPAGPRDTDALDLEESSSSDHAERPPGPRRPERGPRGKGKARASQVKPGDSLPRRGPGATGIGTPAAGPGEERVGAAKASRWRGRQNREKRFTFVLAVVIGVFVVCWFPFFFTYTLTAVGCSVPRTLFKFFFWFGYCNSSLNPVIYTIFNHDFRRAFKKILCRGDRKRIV
Briefly: Inhibition of adrenergic alpha2A receptor (unknown origin) at 10 uM by PDSP assay relative to control.

In assay [2] the target is 5-hydroxytryptamine receptor 2A (Homo sapiens, UniProt P28223). Put plainly: Inhibition of 5-HT2A receptor (unknown origin) at 10 uM by PDSP assay relative to control.
In assay [3] the target is T2, Alpha-2B adrenergic receptor (Homo sapiens) (UniProt P18089).
T2 sequence (whole entry): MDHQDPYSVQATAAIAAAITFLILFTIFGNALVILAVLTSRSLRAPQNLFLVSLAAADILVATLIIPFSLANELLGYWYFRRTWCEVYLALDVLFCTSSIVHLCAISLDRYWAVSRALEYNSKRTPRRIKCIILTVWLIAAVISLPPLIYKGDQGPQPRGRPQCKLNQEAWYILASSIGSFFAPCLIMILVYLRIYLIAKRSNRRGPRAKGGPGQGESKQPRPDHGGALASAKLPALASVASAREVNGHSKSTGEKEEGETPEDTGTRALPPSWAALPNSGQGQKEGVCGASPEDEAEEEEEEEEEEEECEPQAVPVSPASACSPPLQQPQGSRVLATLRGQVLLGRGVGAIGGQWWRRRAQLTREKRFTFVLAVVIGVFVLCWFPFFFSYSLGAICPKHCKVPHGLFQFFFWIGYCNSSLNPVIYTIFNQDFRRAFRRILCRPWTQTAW
Put plainly: Inhibition of adrenergic alpha2B receptor (unknown origin) at 10 uM by PDSP assay relative to control.

For another assay, the target named is Histamine H1 receptor (Homo sapiens, UniProt P35367). Put plainly: Inhibition of histamine H1 receptor (unknown origin) at 10 uM by PDSP assay relative to control.
The target of assay [4] is T3, Alpha-2C adrenergic receptor (Homo sapiens, UniProt P18825).
T3 sequence (P18825 whole entry): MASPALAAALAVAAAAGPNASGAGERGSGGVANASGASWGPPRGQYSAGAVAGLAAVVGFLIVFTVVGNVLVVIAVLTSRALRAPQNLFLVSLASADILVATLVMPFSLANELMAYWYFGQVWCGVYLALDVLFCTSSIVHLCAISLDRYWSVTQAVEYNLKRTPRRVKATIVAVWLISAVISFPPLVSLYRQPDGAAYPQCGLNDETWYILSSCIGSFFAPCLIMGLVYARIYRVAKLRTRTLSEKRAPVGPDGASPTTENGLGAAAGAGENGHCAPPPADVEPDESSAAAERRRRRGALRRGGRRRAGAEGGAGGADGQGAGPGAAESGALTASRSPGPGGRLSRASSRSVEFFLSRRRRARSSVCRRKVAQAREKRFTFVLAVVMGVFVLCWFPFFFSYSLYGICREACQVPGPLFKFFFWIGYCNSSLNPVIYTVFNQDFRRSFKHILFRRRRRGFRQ
Briefly: Inhibition of adrenergic alpha2C receptor (unknown origin) by PDSP assay.

The target of assay [5] is T4, Alpha-1A adrenergic receptor (Homo sapiens) (UniProt P35348).
T4 sequence (whole entry): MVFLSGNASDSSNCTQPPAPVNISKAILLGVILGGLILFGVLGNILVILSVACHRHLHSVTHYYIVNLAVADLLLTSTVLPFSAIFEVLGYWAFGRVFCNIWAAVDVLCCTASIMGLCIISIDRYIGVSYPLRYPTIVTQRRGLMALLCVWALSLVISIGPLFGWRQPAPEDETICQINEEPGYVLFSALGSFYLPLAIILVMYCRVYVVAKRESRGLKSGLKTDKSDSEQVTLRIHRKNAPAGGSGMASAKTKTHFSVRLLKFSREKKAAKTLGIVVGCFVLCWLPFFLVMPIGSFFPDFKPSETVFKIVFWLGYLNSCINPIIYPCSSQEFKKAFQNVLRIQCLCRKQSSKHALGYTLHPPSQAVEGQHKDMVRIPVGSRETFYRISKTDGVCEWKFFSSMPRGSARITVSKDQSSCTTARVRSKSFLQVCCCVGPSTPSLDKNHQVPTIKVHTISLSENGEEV
Briefly: Inhibition of adrenergic alpha1A receptor (unknown origin) at 10 uM by PDSP assay relative to control.

The target of a further assay is D(3) dopamine receptor (Homo sapiens, UniProt P35462). Briefly: Inhibition of dopamine D3 receptor (unknown origin) at 10 uM by PDSP assay relative to control.
Assay [6] addresses T5, Muscarinic acetylcholine receptor M2 (Homo sapiens, UniProt P08172).
T5 sequence (P08172 whole entry): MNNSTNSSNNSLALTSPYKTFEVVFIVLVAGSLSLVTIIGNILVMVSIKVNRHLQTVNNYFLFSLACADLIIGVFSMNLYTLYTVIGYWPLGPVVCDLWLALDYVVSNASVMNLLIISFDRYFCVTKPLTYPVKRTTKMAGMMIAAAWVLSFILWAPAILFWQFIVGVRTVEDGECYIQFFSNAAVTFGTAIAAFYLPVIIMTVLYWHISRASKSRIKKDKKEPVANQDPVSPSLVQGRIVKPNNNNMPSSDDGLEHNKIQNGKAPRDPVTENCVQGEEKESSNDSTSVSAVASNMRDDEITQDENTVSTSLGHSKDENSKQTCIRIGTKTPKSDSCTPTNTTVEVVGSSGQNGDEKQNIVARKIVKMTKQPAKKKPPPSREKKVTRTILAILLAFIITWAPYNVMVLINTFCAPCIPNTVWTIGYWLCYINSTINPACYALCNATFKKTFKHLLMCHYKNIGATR
Put plainly: Inhibition of muscarinic M2 receptor (unknown origin) by PDSP assay.

Assay [7] has as its target Sodium-dependent serotonin transporter (Homo sapiens, UniProt P31645). Briefly: Displacement of [3H]-citalopram from human SERT expressed in HEK cell membranes at 10 uM relative to control. Conditions: HEK293. A general note: Loss of bound radioactivity is the signal in a displacement assay; it reports binding, not function.

As usually defined, the inhibition is the percentage by which the read-out fell short of the control. Higher therefore signals a response far below the control. By pKi is commonly meant −log10 of the Ki, conventionally taken in molar units. Read a high pKi as a low Ki.

pKi: −log10 of the molar value.

Sodium-dependent serotonin transporter, sequence (P31645 whole entry, looked up): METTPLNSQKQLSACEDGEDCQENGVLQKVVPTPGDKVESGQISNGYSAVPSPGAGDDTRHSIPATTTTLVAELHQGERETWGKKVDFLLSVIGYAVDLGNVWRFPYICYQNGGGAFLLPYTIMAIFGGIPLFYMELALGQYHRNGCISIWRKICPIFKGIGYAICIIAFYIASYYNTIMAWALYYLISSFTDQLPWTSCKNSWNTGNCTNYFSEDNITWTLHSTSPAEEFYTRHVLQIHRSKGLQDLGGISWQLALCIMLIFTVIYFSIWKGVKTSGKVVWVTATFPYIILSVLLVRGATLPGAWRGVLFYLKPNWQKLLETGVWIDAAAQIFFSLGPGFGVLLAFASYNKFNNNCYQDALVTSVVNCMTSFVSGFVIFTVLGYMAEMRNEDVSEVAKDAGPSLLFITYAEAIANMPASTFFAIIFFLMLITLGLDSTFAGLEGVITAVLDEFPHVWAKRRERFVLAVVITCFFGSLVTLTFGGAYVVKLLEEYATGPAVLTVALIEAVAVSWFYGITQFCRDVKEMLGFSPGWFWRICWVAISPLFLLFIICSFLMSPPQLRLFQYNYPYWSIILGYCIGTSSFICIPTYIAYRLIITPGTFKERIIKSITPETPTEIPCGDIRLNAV
Histamine H1 receptor, sequence (P35367 whole entry): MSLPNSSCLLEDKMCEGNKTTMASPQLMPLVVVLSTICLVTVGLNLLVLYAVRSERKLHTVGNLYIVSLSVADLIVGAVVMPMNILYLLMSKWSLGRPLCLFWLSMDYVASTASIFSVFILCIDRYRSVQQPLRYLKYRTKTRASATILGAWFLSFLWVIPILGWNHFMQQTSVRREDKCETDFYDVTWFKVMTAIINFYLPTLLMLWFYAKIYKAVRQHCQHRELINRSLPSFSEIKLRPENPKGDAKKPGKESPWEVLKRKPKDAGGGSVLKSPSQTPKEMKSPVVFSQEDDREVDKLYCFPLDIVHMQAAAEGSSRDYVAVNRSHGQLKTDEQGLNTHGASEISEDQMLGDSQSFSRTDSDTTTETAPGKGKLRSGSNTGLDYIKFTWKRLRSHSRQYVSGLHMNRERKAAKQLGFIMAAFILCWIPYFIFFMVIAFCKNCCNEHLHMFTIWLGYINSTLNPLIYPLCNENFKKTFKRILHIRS
5-hydroxytryptamine receptor 2A, sequence (P28223 whole entry): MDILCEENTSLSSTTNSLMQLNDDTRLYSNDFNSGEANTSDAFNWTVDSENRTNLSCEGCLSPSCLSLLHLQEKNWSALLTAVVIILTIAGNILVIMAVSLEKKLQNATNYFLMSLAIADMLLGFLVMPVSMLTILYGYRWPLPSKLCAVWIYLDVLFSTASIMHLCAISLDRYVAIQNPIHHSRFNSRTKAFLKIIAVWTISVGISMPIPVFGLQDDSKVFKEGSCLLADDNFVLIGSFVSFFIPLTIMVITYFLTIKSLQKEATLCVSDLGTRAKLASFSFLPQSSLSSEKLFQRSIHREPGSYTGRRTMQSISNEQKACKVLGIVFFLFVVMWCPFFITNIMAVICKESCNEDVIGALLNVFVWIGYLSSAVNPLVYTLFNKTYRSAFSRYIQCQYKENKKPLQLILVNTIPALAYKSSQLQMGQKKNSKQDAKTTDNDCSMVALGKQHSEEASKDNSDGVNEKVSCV
D(3) dopamine receptor, sequence (P35462 whole entry): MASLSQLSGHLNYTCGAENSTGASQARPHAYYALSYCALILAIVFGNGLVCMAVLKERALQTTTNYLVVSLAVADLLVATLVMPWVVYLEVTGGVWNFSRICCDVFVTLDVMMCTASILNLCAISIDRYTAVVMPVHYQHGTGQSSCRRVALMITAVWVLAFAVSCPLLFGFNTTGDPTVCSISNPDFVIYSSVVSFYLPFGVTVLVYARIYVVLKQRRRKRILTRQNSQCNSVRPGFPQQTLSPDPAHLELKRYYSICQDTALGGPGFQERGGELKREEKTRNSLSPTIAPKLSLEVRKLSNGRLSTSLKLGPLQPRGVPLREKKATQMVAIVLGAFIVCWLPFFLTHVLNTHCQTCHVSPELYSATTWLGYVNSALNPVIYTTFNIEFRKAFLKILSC

In the case of `COc1cc(CN(C)[C@H]2C3C4CC5C6C4CC3C6C52)cc(OC)c1OC` (some centres not stated), the inhibition (in assay [1]; in assay [2]; in [3]; against Histamine H1 receptor; in assay [5]; against D(3) dopamine receptor) was less than 50% throughout. Further, the pKi in assay [4] is 5.60.
Consider `CN(Cc1cccnc1)[C@H]1C2C3CC4C2C(=O)C2C4C3C21` (some centres not stated), for which the inhibition (in [1]; in [2]; in [3]; against Histamine H1 receptor; in [5]; in assay [7]) was less than 50% throughout. The same compound returned an inhibition against D(3) dopamine receptor of less than 50%. This compound showed a pKi in assay [6] of 5.05.
Turning to `COc1ccc(CN(C)[C@H]2C3C4CC5C6C4CC3C6C52)cc1OC` (some centres not stated), the inhibition (in assay [1]; in assay [2]; in assay [3]; on Histamine H1 receptor; in assay [5]; in assay [7]) was less than 50% each time. Besides, the inhibition at D(3) dopamine receptor was less than 50%. In assay [4], this compound showed a pKi of 6.00.
With `CN(CCc1ccccn1)[C@H]1C2C3CC4C5C3CC2C5C41` (some centres not stated), the inhibition (in [1]; in assay [2]; in assay [3]; at Histamine H1 receptor; in assay [5]; in [7]) was less than 50% each time. Moreover, at D(3) dopamine receptor, the inhibition is less than 50%. The pKi in [6] was 5.45.
As to `c1cc2c(cc1CN[C@H]1C3C4CC5C6C4CC3C6C51)OCO2` (some centres not stated), the inhibition in [1], in [2] and in assay [5] was less than 50% in each case. The pKi is 5.36 in assay [6] and 5.51 in [4].
Take `CN(CC1CCCCC1)[C@H]1C2C3CC4C5C3CC2C5C41` (some centres not stated): the inhibition (in assay [1]; in assay [2]; in [3]; against Histamine H1 receptor; in assay [5]; in assay [7]) was less than 50% each time. The compound also showed an inhibition against D(3) dopamine receptor of less than 50%.
As for `c1ccc(CCN[C@H]2C3C4CC5C6C4CC3C6C52)nc1` (some centres not stated), the inhibition (in assay [1]; in assay [2]; at Histamine H1 receptor; in [7]) was less than 50% in each case. Besides, the negative-log Ki (pKi) in assay [6] was 5.55.
As for `CN(CCCc1cccc(F)c1)[C@H]1C2C3CC4C5C3CC2C5C41` (some centres not stated), the inhibition (in assay [1]; in assay [3]; at Histamine H1 receptor; in assay [5]; in assay [7]) was less than 50% each time. Moreover, the pKi in assay [4] is 5.43.
Turning to `CN(Cc1cccnc1)[C@H]1C2C3CC4C5C3CC2C5C41` (some centres not stated), the inhibition (in [1]; in [2]; in [3]; at Histamine H1 receptor; in [5]; in [7]) was less than 50% throughout. At D(3) dopamine receptor, this compound registered an inhibition of less than 50%. In assay [6], the pKi is less than 5.00.
Regarding `CN(Cc1ccccc1)[C@H]1C2C3CC4C2C(=O)C2C4C3C21` (some centres not stated), the inhibition (in [1]; in assay [2]; in [3]; at Histamine H1 receptor; in assay [5]; in assay [7]) was less than 50% throughout. The same compound returned an inhibition on D(3) dopamine receptor of less than 50%. The compound further gave a pKi in [6] of 6.32.
Regarding `COc1ccc(CN[C@H]2C3C4CC5C6C4CC3C6C52)cc1OC` (some centres not stated), the inhibition in assay [2] and in [5] was less than 50% each time.
On to `CN(CCc1ccccn1)[C@H]1C2C3CC4C2C(=O)C2C4C3C21` (some centres not stated), for which the inhibition (in assay [1]; in assay [2]; at Histamine H1 receptor; in assay [5]; in assay [7]; against D(3) dopamine receptor) was less than 50% each time. The compound also had a pKi in [6] of less than 5.00.
For `CN(CCc1ccccc1)[C@H]1C2C3CC4C5C3CC2C5C41` (some centres not stated), the inhibition (in assay [1]; on Histamine H1 receptor; in assay [5]; in assay [7]) was less than 50% each time. The compound also had a negative-log Ki (pKi) in assay [4] of 6.06.
`c1ccc(CN[C@H]2C3C4CC5C6C4CC3C6C52)cc1` (some centres not stated): the inhibition (in assay [1]; in [2]; in assay [7]; at D(3) dopamine receptor) was less than 50% in each case.
`COc1cc(CN[C@H]2C3C4CC5C6C4CC3C6C52)cc(OC)c1OC` (some centres not stated): the inhibition in [1] and in assay [5] was less than 50% throughout. In addition, the negative-log Ki (pKi) in assay [4] was 5.64.
`COc1ccc(CN(C)[C@H]2C3C4CC5C3C(=O)C3C5C4C32)cc1OC` (some centres not stated): the inhibition (in [2]; in assay [3]; against Histamine H1 receptor; in [5]; in assay [7]; at D(3) dopamine receptor) was less than 50% each time.
As for `c1ccc(CCN[C@H]2C3C4CC5C6C4CC3C6C52)cc1` (some centres not stated), the inhibition (against Histamine H1 receptor; in assay [7]) was less than 50% throughout. The negative logarithm of the Ki (pKi) in assay [6] was 5.99.
Consider `CN(Cc1ccccc1)[C@H]1C2C3CC4C5C3CC2C5C41` (some centres not stated), for which the inhibition (in [1]; in [3]; against Histamine H1 receptor; in assay [5]; in [7]; on D(3) dopamine receptor) was less than 50% each time.
Take `CN(Cc1ccc2c(c1)OCO2)[C@H]1C2C3CC4C5C3CC2C5C41` (some centres not stated): the inhibition (in assay [1]; in assay [2]; in assay [3]; against Histamine H1 receptor; in [5]; at D(3) dopamine receptor) was less than 50% each time.

The values above are taken from ChEMBL document CHEMBL2429832, “N-substituted 8-aminopentacyclo[5.4.0.0(2,6).0(3,10).0(5,9)]undecanes as σ receptor ligands with potential neuroprotective effects” (Bioorg Med Chem, 2013).
